In patent US20250289817A1, “SEROTONIN RECEPTOR MODULATORS AND METHODS OF MAKING AND USING THE SAME” (Kuleon LLC, priority 2022, published 2025):

Key:
5-HT2A [1] = molecular target: T1, 5-HT2A (Homo sapiens, UniProt P28223); assay: Gq activation via Gq/γ1 dissociation BRET, 5-HT2A; assay type: cell-based; details: HEK293T cells; for Emax: HEK-293T, Gq dissociation BRET2, normalized to % 5-HT stimulation; for EC50: Gq dissociation BRET2, 1 hour at 37° C.
T1 construct: expressed in transfected cells; host or cells: HEK293T
T1 sequence (P28223 whole entry): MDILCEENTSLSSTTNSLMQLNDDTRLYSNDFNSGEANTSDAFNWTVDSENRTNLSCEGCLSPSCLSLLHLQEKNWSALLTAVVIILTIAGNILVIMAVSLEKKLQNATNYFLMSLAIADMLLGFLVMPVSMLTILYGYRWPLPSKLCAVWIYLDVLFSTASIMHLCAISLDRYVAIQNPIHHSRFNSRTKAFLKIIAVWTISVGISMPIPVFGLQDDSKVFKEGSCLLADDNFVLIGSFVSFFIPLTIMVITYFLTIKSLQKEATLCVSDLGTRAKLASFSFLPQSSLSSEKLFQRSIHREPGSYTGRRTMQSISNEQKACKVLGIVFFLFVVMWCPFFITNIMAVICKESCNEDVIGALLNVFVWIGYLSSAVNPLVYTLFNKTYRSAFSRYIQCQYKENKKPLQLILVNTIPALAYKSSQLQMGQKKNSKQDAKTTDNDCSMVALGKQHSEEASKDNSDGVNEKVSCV
Source text: (§1) To measure 5-HT2 receptor-mediated Gq activation via Gq/y1 dissociation as measured by Bioluminescence Resonance Energy Transfer (BRET) (McCorvy JD, Wacker D, Wang S, Agegnehu B, Liu J, Lansu K, Tribo A R, Olsen R HJ, Che T, Jin J, Roth B L. Structural determinants of 5-HT2B receptor activation and biased agonism. Nat Struct Mo/ Biol. 2018; 25(9): 787-96), HEK293T cells were sub-cultured in Dulbecco's Modified Eagle Medium (DMEM) supplemented with 10% dialyzed fetal bovine serum (FBS) and were co-transfected in a 1:1:1:1 ratio with Rluc8-fused human Gaq (Gaq-Rluc8), a GFP2-fused to the C-terminus of human Gy1(Gy1-GFP2), human G131, and 5-HT2 receptor using TransiT-2020. After at least 18-24 hours, transfected cells were plated in poly-lysine coated 96-well white clear bottom cell culture plates in DMEM containing 1% dialyzed FBS at a density of 25,000-40,000 cells in 200 μL per well and incubated overnight. The following day, medium was decanted, and cells were washed with 60 μL of drug buffer (1×HBSS, 20 mM HEPES, pH 7.4), then 60 μL of drug buffer was added per well. Cells were pre-incubated at in a humidified atmosphere at 37° C. before receiving drug stimulation. Drug stimulation utilized 30 μL addition of drug (3×) diluted in McCorvy buffer (1×HBSS, 20 mM HEPES, pH 7.4, supplemented with 0.3% BSA fatty acid free, 0.03% ascorbic acid) and plates were incubated at for 1 hour at 37° C. Substrate addition occurred 15 minutes before reading and utilized 10 μL of the Rluc substrate coelenterazine 400a for Gq dissociation BRET^2 (Prolume/Nanolight, 5 μM final concentration). Plates were read for luminescence at 400 nm and fluorescent GFP2 emission at 510 nm at 1 second per well using a Mithras LB940 multimode microplate reader (e.g. one provided by Berthold). The BRET ratios of fluorescence/luminescence were calculated per well and were plotted as a function of drug concentration using Graphpad Prism 8 (Graphpad Software Inc., San Diego, CA). Data were normalized to % 5-HT stimulation and analyzed using nonlinear regression “log(agonist) vs. response” to yield Emax and EC50 parameter estimates. Results are shown in Table 8, where A=<10; B=10 to <100; C=100 to 1000 and D=>1000; +++=>70%; ++=50 to 70%; and +=<50%; NC=not calculated. […] Hallucinogenic (“Hall”) or non-hallucinogenic (“N-Hall”) plastogenic effect is predicted for compounds based on the level 5-HT2A agonist efficacy.

5-HT2B = molecular target: T2, 5-HT2B (Homo sapiens, UniProt P41595); assay: Gq activation via Gq/γ1 dissociation BRET, 5-HT2B; assay type: cell-based; details: HEK293T cells, AT* = data suggests antagonistic effect at 5-HT2B (footnote); for Emax: HEK-293T, Gq dissociation BRET2, normalized to % 5-HT stimulation
T2 construct: expressed in transfected cells; host or cells: HEK293T
T2 sequence (P41595 whole entry): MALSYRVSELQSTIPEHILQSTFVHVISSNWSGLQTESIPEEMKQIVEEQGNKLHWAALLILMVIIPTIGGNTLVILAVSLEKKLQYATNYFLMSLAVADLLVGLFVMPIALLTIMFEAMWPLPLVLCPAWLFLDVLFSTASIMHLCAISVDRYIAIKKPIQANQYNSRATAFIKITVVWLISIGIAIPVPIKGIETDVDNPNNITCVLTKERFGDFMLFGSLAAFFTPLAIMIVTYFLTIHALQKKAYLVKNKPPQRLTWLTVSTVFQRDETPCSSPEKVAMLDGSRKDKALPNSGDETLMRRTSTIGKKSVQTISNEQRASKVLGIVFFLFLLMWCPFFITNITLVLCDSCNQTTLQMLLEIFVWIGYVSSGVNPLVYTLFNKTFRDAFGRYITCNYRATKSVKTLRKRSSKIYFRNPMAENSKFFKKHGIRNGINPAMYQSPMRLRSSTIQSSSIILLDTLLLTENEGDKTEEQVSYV
Source text: as §1

5-HT2C [2] = molecular target: T3, 5-HT2C (Homo sapiens, UniProt P28335); assay: Gq signaling bias for 5-HT2C (Gq-coupled versus B-arrestin signaling); assay type: cell-based; details: primary signaling for 5-HT2C via Gq-coupled mechanism compared to B-arrestin
T3 sequence (P28335 33-458): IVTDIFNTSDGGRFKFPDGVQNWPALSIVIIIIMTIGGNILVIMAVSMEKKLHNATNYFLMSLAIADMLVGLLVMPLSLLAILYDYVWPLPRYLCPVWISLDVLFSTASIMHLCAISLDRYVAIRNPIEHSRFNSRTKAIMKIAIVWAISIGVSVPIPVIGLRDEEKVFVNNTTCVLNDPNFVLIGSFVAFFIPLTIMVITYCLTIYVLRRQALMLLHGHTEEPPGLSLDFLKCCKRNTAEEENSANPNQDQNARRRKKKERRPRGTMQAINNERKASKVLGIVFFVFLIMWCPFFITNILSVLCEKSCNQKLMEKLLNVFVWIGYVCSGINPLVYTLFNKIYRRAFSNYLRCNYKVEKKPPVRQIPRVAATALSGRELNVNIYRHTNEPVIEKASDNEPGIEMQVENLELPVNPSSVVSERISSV
Source text: as §1

5-HT2A [3] = molecular target: T1, 5-HT2A; assay: Predicted hallucinogenic or non-hallucinogenic plastogenic effect based on 5-HT2A agonist efficacy; details: hallucinogenic (Hall) or non-hallucinogenic (N-Hall) plastogenic effect predicted from level of 5-HT2A agonist efficacy
Source text: as §1

5-HT2C [4] = molecular target: T3, 5-HT2C; assay: Gq activation via Gq/γ1 dissociation BRET, 5-HT2C; assay type: cell-based; parameters: expressed in transfected cells; host or cells: HEK293T; details: for Emax: HEK-293T, read-out: 5-HT2C Emax (%)
Source text: as §1

[5] = Gq dissociation BRET2, 1 hour at 37° C.

| Structure (SMILES) | Emax (5-HT2A [1]) | Emax (5-HT2B) | Gq signaling bias? (5-HT2C [2]) | Hall or N-Hall? (5-HT2A [3]) | Emax (5-HT2C [4]) | EC50 (5-HT2A [1]) | 5-HT2B EC50 (nM) (5-HT2B; [5]) | EC50 (5-HT2C [4]) | EC50 (5-HT2B; [5]) |
| --- | --- | --- | --- | --- | --- | --- | --- | --- | --- |
| C1=C(c2c[nH]c3ncccc23)CNC1 | < 50% | < 50% | No | N-Hall | < 50% |  |  |  |  |
| CN1CC=C(c2csc3cc(F)ccc23)C1 | < 50% |  |  |  | 50 to 70% | 0.1 to 1 µM | AT* | 0.01 to 0.1 µM |  |
| C1=C(c2csc3ccccc23)CNC1 | > 70% | < 50% | Yes | Hall | > 70% | 0.01 to 0.1 µM |  | < 0.01 µM |  |
| CN1CC=C(c2csc3ccccc23)C1 | 50 to 70% | < 50% |  |  | > 70% | 0.01 to 0.1 µM |  | < 0.01 µM | > 1 µM |
| Fc1cnc2[nH]cc(C3=CCNC3)c2c1 | > 70% | > 70% | No | Hall | > 70% | 0.1 to 1 µM |  | 0.01 to 0.1 µM | 0.1 to 1 µM |
| CN1CC(c2csc3ccccc23)C1.Cl | < 50% | < 50% | Yes | N-Hall | > 70% | > 1 µM |  | 0.01 to 0.1 µM | 0.1 to 1 µM |
| Cl.c1ccc2c(C3CCNC3)csc2c1 (stereo not shown) | 50 to 70% | < 50% | Yes | N-Hall | > 70% | 0.1 to 1 µM |  | 0.01 to 0.1 µM |  |
